Assay results as given in patent publication US20230017786A1, “DEXTR[…] A DISEASE-MODIFYING TREATMENT FOR NEUROPSYCHIATRIC DISORDERS AND DISEASES” (priority 2020, published 2023).
pKi: −log10 of the molar value.

Columns and labels:
[1] = tested on: healthy subjects; test: Phase 1 SAD and MAD studies, safety and tolerability
[2] = tested on: patients with MDD; test: Phase 2 sub-analysis, MADRS and SDQ composite indexes and single functional items; assay type: in vivo, human
From the text: The present inventors selected items from the MADRS and SDQ scales and created Composite Indexes of cognitive and motivational functions: Cognitive composite index: [MADRS 6 (concentration difficulties), SDQ 16 (wakefulness), SDQ 22 (slowed down feeling, SDQ 35 (ability to focus), SDQ 36 (ability to remember), SDQ 37 (ability to find words), SDQ 38 (sharpness), SDQ 39 (ability to make decisions), SDQ 42 (ability to work)]; Motivation-energy composite index: [MADRS 7 (lassitude), SDQ 7 (motivation), SDQ 20 (energy)]; Mood composite index: [MADRS 1 (reported sadness), SDQ 1, 2, 3 (mood)]; Sleep composite index: [MADRS 4 (reduced sleep), SDQ 13 (ability to fall asleep), SDQ 14 (ability to stay asleep in the middle of the night), SDQ 15 (ability to stay asleep around the time before waking up)]; The present inventors also separately analyzed two additional single functional items part of the SDQ. 1) Social function, single question (SDQ 41, social functioning); 2) sexual function, single question (SDQ 40, sexual functioning).
Analysis of Change from Baseline at different times after the onset of treatment: The likelihood-based method applied is the Mixed-Effect Model Repeated Measures (MMRM) model with fixed-effect terms for treatment, visit (Day 2, Day 4, Day 7, Day 14) and the interaction between treatment and visit. The LS means and the LS means difference (the difference between REL-1017 and Placebo in the LS means) are provided along with the p-value for testing the hypothesis of no difference and the Cohen's effect size (calculated based on the LS mean differences and the pooled standard deviations). The 25 mg and 50 mg dosages are considered separately and combined: 25 mg+50 mg, Combined Treatment Group (CTG).

[3] = target: T1, human NMDA receptor GluN1-GluN2A (Homo sapiens, UniProt Q05586+Q12879); test: FLIPR calcium assay, test item effect on L-glutamate CRC, GluN1-GluN2A-CHO; assay type: cell-based
T1 construct: expressed in transfected cells; host or cells: CHO
T1 sequence (Q12879 23-1464, other chains not shown): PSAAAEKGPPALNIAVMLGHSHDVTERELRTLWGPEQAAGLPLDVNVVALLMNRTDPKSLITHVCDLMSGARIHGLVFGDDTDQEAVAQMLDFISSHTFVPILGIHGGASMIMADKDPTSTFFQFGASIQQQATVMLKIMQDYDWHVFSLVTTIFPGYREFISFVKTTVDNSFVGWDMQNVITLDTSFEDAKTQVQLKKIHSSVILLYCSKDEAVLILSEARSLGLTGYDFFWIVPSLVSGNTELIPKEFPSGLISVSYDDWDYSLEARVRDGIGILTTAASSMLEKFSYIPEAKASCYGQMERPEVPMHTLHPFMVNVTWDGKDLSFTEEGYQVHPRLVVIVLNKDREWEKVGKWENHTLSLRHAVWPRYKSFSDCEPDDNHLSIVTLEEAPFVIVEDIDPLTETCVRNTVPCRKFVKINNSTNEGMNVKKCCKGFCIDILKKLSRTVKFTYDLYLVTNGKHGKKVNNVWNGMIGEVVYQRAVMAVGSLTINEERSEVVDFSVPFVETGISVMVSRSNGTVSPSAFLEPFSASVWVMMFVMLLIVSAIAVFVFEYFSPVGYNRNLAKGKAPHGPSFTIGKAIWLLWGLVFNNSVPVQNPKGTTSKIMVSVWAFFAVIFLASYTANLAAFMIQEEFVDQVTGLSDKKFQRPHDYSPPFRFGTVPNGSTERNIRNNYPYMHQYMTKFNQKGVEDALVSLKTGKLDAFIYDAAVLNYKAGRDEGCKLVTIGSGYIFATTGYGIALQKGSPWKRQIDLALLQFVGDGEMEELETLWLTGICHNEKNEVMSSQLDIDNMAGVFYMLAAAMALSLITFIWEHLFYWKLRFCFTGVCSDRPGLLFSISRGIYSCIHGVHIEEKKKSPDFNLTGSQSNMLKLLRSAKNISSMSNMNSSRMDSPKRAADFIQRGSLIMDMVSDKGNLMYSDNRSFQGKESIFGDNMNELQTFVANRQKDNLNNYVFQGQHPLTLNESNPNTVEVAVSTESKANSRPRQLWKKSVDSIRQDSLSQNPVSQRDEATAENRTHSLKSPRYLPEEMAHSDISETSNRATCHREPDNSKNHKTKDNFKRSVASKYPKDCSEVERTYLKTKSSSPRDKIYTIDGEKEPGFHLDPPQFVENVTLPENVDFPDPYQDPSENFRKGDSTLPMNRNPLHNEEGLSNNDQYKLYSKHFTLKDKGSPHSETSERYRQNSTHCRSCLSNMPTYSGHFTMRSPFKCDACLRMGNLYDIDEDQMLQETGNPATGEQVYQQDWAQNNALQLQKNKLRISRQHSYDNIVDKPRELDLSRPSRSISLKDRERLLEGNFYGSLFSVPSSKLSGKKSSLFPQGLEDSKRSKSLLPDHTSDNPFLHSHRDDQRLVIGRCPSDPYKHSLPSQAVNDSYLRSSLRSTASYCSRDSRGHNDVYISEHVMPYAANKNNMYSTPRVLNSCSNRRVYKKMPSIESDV

[4] = target: 5-HT2A receptor (Homo sapiens, UniProt P28223); details: agonist; Rickli et al., 2018; cited from earlier work
Chain of 5-HT2A receptor (P28223 whole entry): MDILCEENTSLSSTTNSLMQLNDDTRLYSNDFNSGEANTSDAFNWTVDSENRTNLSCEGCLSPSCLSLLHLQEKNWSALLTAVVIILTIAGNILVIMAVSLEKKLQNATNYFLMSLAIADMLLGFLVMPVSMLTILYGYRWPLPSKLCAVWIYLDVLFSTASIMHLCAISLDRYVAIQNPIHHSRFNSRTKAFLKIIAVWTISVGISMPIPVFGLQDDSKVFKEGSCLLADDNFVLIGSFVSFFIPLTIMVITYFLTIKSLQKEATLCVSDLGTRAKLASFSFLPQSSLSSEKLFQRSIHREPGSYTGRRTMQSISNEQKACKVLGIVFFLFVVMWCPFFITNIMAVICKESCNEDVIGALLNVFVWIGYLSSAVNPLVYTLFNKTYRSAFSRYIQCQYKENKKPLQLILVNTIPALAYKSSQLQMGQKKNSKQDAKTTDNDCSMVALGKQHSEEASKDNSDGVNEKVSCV

[5] = target: T2, recombinant human NMDAR GluN1 plus GluN2B (Homo sapiens, UniProt Q05586+Q13224); test: FLIPR calcium assay, gentamicin as PAM (Example 5 Part I), GluN2B cell line; assay type: cell-based; details: 10 μM test item; dextromethadone in presence and absence of 10 μM gentamicin
T2 construct: expressed in transfected cells; host or cells: CHO
T2 sequence (Q13224 27-1484, other chains not shown): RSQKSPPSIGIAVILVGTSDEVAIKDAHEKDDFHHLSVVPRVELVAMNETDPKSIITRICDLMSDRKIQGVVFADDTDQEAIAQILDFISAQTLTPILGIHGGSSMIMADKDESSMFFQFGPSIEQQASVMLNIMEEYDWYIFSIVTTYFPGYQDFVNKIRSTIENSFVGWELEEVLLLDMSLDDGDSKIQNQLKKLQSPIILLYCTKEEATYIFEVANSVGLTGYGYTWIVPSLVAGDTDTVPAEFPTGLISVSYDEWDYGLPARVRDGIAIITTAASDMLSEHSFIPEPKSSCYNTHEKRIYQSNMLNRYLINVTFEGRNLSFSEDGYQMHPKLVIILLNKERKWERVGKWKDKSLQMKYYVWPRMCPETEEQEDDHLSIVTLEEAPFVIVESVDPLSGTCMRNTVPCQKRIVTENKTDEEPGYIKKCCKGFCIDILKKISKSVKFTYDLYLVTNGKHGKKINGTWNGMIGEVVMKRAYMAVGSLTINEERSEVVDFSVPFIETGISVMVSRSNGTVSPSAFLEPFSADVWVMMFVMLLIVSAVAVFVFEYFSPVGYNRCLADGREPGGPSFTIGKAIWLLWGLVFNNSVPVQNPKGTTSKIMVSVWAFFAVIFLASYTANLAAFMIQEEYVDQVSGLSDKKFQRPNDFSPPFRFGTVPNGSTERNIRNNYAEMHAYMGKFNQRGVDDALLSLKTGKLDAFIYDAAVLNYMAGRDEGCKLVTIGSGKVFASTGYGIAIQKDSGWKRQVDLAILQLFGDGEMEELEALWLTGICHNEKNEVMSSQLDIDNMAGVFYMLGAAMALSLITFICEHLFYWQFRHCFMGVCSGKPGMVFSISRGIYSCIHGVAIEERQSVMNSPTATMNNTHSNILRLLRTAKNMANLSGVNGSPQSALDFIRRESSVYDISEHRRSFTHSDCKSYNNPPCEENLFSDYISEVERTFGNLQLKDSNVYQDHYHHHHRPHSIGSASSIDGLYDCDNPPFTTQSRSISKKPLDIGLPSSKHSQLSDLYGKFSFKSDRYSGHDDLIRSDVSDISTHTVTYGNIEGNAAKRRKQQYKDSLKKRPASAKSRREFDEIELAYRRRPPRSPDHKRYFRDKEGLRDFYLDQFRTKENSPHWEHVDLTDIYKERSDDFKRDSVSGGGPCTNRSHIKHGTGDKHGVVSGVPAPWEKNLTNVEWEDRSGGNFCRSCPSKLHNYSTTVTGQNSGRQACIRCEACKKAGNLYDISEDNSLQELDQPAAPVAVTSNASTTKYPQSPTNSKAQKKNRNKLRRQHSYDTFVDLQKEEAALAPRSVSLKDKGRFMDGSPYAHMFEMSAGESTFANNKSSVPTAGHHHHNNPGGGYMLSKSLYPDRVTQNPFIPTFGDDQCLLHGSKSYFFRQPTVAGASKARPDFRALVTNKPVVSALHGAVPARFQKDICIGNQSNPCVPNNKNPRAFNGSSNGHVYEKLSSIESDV
From the text: A FLIPR calcium assay was used to profile gentamicin using stable cell lines expressing diheteromeric recombinant human NMDARs, containing GluN1 plus one amongst GluN2A, GluN2B, GluN2C or GluN2D subunit.

[6] = target: T3, human NMDA receptor GluN1-GluN2C (Homo sapiens, UniProt Q05586+Q14957); test: FLIPR calcium assay, quinolinic acid, gentamicin, dextromethadone (Example 5 Part II), GluN1-GluN2C-CHO; assay type: cell-based; details: 10 μM glycine; for calcium response (mean±SEM): GluN2C, n=42
T3 construct: expressed in transfected cells; host or cells: CHO
T3 sequence (Q14957 20-1233, other chains not shown): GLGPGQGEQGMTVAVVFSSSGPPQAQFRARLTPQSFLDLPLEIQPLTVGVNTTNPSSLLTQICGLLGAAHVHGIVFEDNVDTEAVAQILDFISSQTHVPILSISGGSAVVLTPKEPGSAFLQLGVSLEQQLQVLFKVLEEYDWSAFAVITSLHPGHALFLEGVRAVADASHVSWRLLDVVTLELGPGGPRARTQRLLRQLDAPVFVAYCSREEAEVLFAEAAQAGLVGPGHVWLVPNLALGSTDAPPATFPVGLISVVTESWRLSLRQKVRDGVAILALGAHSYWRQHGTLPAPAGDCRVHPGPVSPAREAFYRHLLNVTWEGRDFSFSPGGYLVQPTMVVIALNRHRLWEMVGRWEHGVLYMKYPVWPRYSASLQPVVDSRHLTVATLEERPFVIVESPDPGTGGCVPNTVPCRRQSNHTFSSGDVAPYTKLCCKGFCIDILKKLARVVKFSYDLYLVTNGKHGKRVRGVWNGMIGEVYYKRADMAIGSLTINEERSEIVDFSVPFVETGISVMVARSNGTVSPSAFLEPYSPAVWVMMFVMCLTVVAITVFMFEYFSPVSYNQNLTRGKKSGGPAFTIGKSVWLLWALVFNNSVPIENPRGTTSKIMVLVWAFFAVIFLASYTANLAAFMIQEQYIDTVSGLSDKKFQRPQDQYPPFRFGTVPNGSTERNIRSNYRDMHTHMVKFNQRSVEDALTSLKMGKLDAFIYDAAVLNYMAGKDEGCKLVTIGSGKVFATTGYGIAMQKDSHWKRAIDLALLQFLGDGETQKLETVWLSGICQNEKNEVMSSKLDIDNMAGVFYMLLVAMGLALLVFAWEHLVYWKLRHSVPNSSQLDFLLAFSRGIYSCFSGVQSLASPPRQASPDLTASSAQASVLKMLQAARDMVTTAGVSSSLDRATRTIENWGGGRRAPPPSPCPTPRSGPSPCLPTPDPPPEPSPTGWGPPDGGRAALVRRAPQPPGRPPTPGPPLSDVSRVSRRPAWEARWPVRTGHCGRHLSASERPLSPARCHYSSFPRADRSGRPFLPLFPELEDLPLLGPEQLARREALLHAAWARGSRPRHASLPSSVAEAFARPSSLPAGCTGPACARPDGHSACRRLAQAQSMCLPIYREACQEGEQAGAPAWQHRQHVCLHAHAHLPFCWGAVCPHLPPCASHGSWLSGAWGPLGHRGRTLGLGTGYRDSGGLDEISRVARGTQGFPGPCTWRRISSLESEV

[7] = 25 mg, day not given (first set)
[8] = 50 mg, day not given (first set)
[9] = CTG 25 mg+50 mg, day not given (first set)

CCC(=O)C(C[C@H](C)N(C)C)(c1ccccc1)c1ccccc1 [Dextromethadone, dextromethadone]
QTcF changes from base-line ([1]; SAD and MAD): none of the changes were considered clinically significant | respiratory depression, dissociative and psychotomimetic effects, withdrawal signs and symptoms ([1]; SAD and MAD, abrupt discontinuation): no evidence | tolerability ([1]; single doses up to 150 mg and daily doses up to 75 mg for 10 days): well tolerated | Social function (SDQ 41), LS mean difference vs placebo ([2]; 25 mg, Day 7): −1.07 | Social function (SDQ 41), effect size ([2]; 25 mg, Day 7): 0.65 | Sexual function (SDQ 40), LS mean difference vs placebo ([2]; 25 mg, Day 14): −1.32 | Sexual function (SDQ 40), effect size ([2]; 25 mg, Day 14): 0.93 | Social function (SDQ 41), LS mean difference vs placebo ([2]; 25 mg, Day 14): −1,246 | Social function (SDQ 41), effect size ([2]; 25 mg, Day 14): 0.99 | Sexual function (SDQ 40), LS mean difference vs placebo [2, 7]: −0.66 | Sexual function (SDQ 40), effect size [2, 7]: 0.48 | Social function (SDQ 41), LS mean difference vs placebo ([2]; 50 mg, Day 7): −1 | Social function (SDQ 41), effect size ([2]; 50 mg, Day 7): 0.57 | Sexual function (SDQ 40), LS mean difference vs placebo ([2]; 50 mg, Day 14): −0.4 | Sexual function (SDQ 40), effect size ([2]; 50 mg, Day 14): 0.29 | Social function (SDQ 41), effect size ([2]; 50 mg, Day 14): 0.98 | Sexual function (SDQ 40), LS mean difference vs placebo [2, 8]: −0.28 | Sexual function (SDQ 40), effect size [2, 8]: 0.19 | Social function (SDQ 41), effect size ([2]; CTG 25 mg+50 mg, Day 7): 0.61 | Sexual function (SDQ 40), LS mean difference vs placebo ([2]; CTG 25 mg+50 mg, Day 14): −0.86 | Sexual function (SDQ 40), effect size ([2]; CTG 25 mg+50 mg, Day 14): 0.59 | Social function (SDQ 41), LS mean difference vs placebo ([2]; CTG 25 mg+50 mg, Day 14): −1.19 | Social function (SDQ 41), effect size ([2]; CTG 25 mg+50 mg, Day 14): 0.99 | Sexual function (SDQ 40), LS mean difference vs placebo [2, 9]: −0.46 | Sexual function (SDQ 40), effect size [2, 9]: 0.32 | α, estimated cooperativity term ([3]; operational analysis for allosteric modulators): 0.22 | L-glutamate CRC HillSlope ([3]; with test item 49 nM): 1.0 | L-glutamate CRC LogEC50 ([3]; with test item 49 nM): −6.7 | L-glutamate CRC HillSlope ([3]; with test item 195 nM): 1.1 | L-glutamate CRC LogEC50 ([3]; with test item 195 nM): −6.6 | L-glutamate CRC HillSlope ([3]; with test item 781 nM): 1.1 | L-glutamate CRC LogEC50 ([3]; with test item 781 nM): −6.6 | L-glutamate CRC HillSlope ([3]; with test item 3.1 μM): 1.0 | L-glutamate CRC LogEC50 ([3]; with test item 3.1 μM): −6.6 | L-glutamate CRC HillSlope ([3]; with test item 12.5 μM): 1.0 | L-glutamate CRC LogEC50 ([3]; with test item 12.5 μM): −6.4 | L-glutamate CRC HillSlope ([3]; with test item 50 μM): 1.4 | L-glutamate CRC LogEC50 ([3]; with test item 50 μM): −6.4 | pKi [4]: 6.28 | calcium entry induced by 0.04 μM L-glutamate [5]: significantly reduced | calcium entry induced by 0.2 μM L-glutamate [5]: significantly reduced | calcium entry induced by 10 μM L-glutamate [5]: significantly reduced | calcium response (mean±SEM) ([6]; 0.04 μM L-Glu + 10 μM DXT): 1.6 ± 0.4 | calcium response (mean±SEM) ([6]; 0.04 μM L-Glu + 100 μM QA + 10 μM DXT): −2.5 ± 0.7 | calcium response (mean±SEM) ([6]; 0.04 μM L-Glu + 1000 μM QA + 10 μM DXT): −8.6 ± 1.5 | calcium response (mean±SEM) ([6]; 0.2 μM L-Glu + 10 μM DXT): 13 ± 0.7 | calcium response (mean±SEM) ([6]; 0.2 μM L-Glu + 100 μM QA + 10 μM DXT): 7.7 ± 0.6 | calcium response (mean±SEM) ([6]; 0.2 μM L-Glu + 1000 μM QA + 10 μM DXT): −3.8 ± 0.9 | % effect on calcium entry, 100 QA + 10 DXT ([6]; 100 μM QA + 10 μM DXT): −3.3 ± 0.5% | calcium response (mean±SEM) ([6]; 1000 μM QA + 10 μM DXT): −8.0 ± 0.4 | % effect on calcium entry, 1000 QA + 10 DXT ([6]; 1000 μM QA + 10 μM DXT): −8.0 ± 0.4% | calcium response (mean±SEM) ([6]; 1000 μM QA + 10 μg/ml GENT + 10 μM DXT): −11 ± 0.9 | calcium response (mean±SEM) ([6]; Table 41: 0.04 μM L-Glu + 10 μM DXT): 1.6 ± 0.4 | calcium response (mean±SEM) ([6]; Table 43: 0.2 μM L-Glu + 10 μM DXT): 13 ± 0.7
